Laboratory results: ChEMBL document CHEMBL4184118, “Carbazole-containing amides and ureas: Discovery of cryptochrome modulators as antihyperglycemic agents” (Bioorg Med Chem Lett, 2018)
In brackets after ≈: the same amount, converted by molar mass. Activity calls are given as the source filed them. The calls are words filed in the database; no cut-off is given here.

Experiments:
[1] = Drug uptake in db/db mouse skeletal muscle at 30 mg/kg, po measured at 1 to 24 hrs; assay type: ADME, organism-based, Skeletal muscle tissue; settings: in vivo
Mus musculus [2] = test: In vivo induction of circadian clock modulation in db/db mouse at 30 mg/kg, po; assay type: functional, organism-based
[3] = MRT in db/db mouse at 30 mg/kg, po qd after 1 to 24 hrs; assay type: ADME, organism-based; settings: in vivo
[4] = Drug uptake in db/db mouse brown adipose at 30 mg/kg, po measured at 1 to 24 hrs; assay type: ADME, organism-based, Brown adipose tissue; settings: in vivo
[5] = molecular target: Voltage-gated inwardly rectifying potassium channel KCNH2 (Homo sapiens, UniProt Q12809); test: Inhibition of human ERG
Mus musculus [6] = test: Antidiabetic activity in obese insulin-resistant db/db mouse assessed as reduction in blood glucose AUC at 100 mg/kg, po qd dosed for 7 days by oGTT relative to control; assay type: functional; parameters: scale not given: the % may be the effect or the level left
Mus musculus [7] = test: Unbound Cmax in db/db mouse at 30 mg/kg, po qd after 1 to 24 hrs; assay type: ADME, organism-based; settings: in vivo
[8] = Drug uptake in db/db mouse liver at 30 mg/kg, po measured at 1 to 24 hrs; assay type: ADME, organism-based; settings: in vivo
[9] = Half life in db/db mouse at 30 mg/kg, po qd; assay type: ADME, organism-based; settings: in vivo
[10] = Kinetic solubility in simulated gastric fluid; assay type: physicochemical; settings: read-out: Kinetic_solubility
[11] = Plasma concentration in db/db mouse at 30 mg/kg, po measured at 1 to 24 hrs; assay type: ADME, organism-based; settings: in vivo
Mus musculus [12] = test: Antidiabetic activity in obese insulin-resistant po dosed db/db mouse assessed as reduction in blood glucose AUC administered qd for 7 days by oGTT; assay type: functional, organism-based
Salmonella typhimurium = test: Genotoxicity in Salmonella typhimurium by Ames test; assay type: toxicity, organism-based; settings: salmonella enterica subsp. enterica serovar typhimurium
[13] = Drug uptake in db/db mouse white adipose at 30 mg/kg, po measured at 1 to 24 hrs; assay type: ADME, organism-based, White adipose tissue; settings: in vivo
[14] = Total Cmax in db/db mouse at 30 mg/kg, po qd after 1 to 24 hrs; assay type: ADME, organism-based; parameters: dose 30 mg/kg, route oral; settings: in vivo
Mus musculus [15] = test: Hypoglycemic activity in obese insulin-resistant db/db mouse assessed as decrease in fasting blood glucose level at 100 mg/kg, po qd dosed for 7 days relative to control; assay type: functional; parameters: scale not given: the % may be the effect or the level left

Sequence of Voltage-gated inwardly rectifying potassium channel KCNH2 (Q12809 whole entry): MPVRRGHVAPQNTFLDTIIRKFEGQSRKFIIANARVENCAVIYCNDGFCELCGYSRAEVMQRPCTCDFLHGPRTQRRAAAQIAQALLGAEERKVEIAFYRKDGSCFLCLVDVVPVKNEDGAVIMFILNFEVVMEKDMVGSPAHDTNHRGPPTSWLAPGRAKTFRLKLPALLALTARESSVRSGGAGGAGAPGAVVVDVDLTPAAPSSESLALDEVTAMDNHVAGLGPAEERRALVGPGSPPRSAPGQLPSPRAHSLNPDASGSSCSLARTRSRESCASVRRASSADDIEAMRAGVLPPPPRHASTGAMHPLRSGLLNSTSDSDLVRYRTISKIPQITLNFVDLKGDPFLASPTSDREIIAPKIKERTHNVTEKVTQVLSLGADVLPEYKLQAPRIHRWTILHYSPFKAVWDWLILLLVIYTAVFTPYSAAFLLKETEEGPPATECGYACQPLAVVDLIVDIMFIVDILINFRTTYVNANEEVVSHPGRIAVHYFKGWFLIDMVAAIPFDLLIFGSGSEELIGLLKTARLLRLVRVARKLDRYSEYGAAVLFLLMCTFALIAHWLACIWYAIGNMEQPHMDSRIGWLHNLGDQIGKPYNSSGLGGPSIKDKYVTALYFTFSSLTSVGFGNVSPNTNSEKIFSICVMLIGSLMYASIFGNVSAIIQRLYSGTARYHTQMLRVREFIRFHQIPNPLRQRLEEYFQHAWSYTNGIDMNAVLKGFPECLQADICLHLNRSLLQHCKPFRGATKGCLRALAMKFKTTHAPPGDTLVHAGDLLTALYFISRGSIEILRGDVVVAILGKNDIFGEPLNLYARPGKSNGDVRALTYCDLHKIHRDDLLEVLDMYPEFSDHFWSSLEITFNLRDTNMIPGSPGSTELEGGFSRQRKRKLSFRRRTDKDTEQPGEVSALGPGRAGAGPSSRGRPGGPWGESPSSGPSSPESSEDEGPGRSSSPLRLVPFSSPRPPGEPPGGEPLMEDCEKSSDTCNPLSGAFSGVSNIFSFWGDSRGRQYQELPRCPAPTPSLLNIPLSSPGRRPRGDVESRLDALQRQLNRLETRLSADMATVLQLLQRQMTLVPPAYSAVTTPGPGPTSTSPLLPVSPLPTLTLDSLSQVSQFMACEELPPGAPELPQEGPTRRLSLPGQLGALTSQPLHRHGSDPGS

O=C1NCCN1CC(O)Cn1c2ccc(F)cc2c2cc(F)ccc21 (stereo unspecified)
Drug uptake [1]: Active | Activity (Mus musculus [2]): Active | MRT [3]: 6.76 h | Drug uptake [4]: Active | inhibition (INH) [5]: Not Active | Activity (Mus musculus [6]): 39% | fCmax (Mus musculus [7]): 0.056 µM | Drug uptake [8]: Active | half-life [9]: 2.83 h | solubility kinetic [10]: 142 µM (≈ 48.9 µg/mL) | Drug uptake [11]: Active | Activity (Mus musculus [12]): Dose-dependent effect | Activity (Salmonella typhimurium): Non-Toxic | Drug uptake [13]: Active | Cmax [14]: 1090 nM | Activity (Mus musculus [15]): 14%
